Data on 2 molecules can be found in publication PMC7958344, “Development of Novel Inhibitors Targeting the D-Box of the DNA Binding Domain of Androgen Receptor” (International Journal of Molecular Sciences, 2021).

One experiment addresses T1, full-length AR (Homo sapiens, UniProt P10275).
T1 construct: Full-length AR cDNA were cloned using Polymerase Incomplete Primer Extension; expressed in transfected cells; host or cells: PC3 (transient co-transfection of pA-AR, pB-AR and PG5-NLuc)
T1 sequence (P10275 1-920): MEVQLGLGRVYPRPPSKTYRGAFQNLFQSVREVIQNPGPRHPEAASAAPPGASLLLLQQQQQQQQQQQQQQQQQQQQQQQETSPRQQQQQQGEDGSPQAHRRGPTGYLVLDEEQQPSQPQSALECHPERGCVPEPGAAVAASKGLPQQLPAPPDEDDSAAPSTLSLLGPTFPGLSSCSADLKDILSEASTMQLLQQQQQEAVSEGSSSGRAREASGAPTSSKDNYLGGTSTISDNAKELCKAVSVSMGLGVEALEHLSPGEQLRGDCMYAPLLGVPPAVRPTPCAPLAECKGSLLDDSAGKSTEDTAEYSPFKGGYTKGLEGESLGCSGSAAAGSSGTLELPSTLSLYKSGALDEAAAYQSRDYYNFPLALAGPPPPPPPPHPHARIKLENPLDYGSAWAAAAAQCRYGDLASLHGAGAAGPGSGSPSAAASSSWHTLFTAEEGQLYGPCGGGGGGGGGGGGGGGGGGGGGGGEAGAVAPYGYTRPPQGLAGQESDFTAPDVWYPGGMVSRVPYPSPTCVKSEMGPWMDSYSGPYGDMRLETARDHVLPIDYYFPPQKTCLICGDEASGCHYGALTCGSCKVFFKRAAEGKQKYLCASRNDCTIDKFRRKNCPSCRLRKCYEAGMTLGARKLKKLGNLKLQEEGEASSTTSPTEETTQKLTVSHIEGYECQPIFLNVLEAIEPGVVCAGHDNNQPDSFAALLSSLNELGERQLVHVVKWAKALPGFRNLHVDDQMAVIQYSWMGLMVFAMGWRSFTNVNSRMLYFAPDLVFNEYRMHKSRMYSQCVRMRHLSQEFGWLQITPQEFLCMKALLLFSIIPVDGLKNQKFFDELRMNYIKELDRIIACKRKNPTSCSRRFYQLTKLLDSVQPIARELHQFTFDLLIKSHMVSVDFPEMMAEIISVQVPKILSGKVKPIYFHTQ
The experiment can be described thus: Mammalian two-hybrid (M2H) AR dimerization assay in PC3 cells. The class given is cell-based. Conditions: result in words. As for the experimental part:
Next, the dimerization of full-length AR was assessed by a mammalian two-hybrid (M2H, [30]) assay, where target proteins were fused with Gal4-DBD or VP16 domains. […] High concentrations of VPC-17005 (>20 μM) were required for significant reduction in AR and AR-V7 homo-dimerization.
Figure 3 Anti-dimerization effects of VPC-17160 and VPC-17281 at 20 μM concentraction. PC3 cells were co-transfected with plasmids encoding pA-AR and pB-AR and pG5-NLuc-Gal4 specific reporter. Cells were treated with 0.1% DMSO control, VPC-17160, VPC-17281, or VPC-17005 followed by Nanoluciferase measurement. p < 0.05 (*), p < 0.01 (**) were considered statistically significant (two-tailed t-test). Two-tailed t-test for VPC-17005 vs. 17160 p < 0.05; VPC-17005 vs. VPC-17281 p < 0.05.
Full-length human AR (hARWT) was encoded on pcDNA3.1 expression plasmid. […]
(§1) LNCaP cells incorporating an AR2PB-eGFP reporter construct (2 × probasin) are previously described. eGFP and secreted PSA assays were performed as described. […] PC3_iV7_3TKNluc or PC3_iNluc cells were seeded in DMEM +5% CSS at 5000 cells/well for 24 h, followed by adding doxycycline/compounds (18 h) and luminescence measurement. LNCaP and 22rv1 cells were starved in RPMI + CSS (48 h) before cell viability tests using the same conditions as above, followed by 30 μL/well PrestoBlue™ Reagent (1 h) and fluorescence measurement (TECAN F200).

In experiment [1] the test system is PC3-dox inducible luciferase cell line. The experiment can be described thus: Nanoluc counterscreen in PC3-dox inducible luciferase cell line. It counts as cell-based. The conditions noted are these: Supplementary Table 1.
From the text: Compounds were first screened for their inhibition of AR-V7 transcriptional activity. To do so, we created a PC3 cell-based population that stably encodes (i) a doxycycline-inducible AR-V7 cDNA sequence (pLIX402 tet-inducible promoter, puromycin selection), and (ii) the ARR3tk-nanoLuciferase reporter construct. […] This allowed the screening of the compounds without using the error-prone method of transiently transfecting V7 and reporter constructs. The inhibition efficacy of compounds was measured using doxycycline treatment along with an increasing dose of compounds. From this screen, a panel of compounds was identified with some anti-dimerization activity (Supplementary Table S1). […] To rule out direct effects of the compounds on luciferase expression or PC3 cell viability, we used a PC3-dox inducible luciferase cell line in parallel.
as §1

Turning to `O=C(NCc1cccc2ccccc12)NCC(O)(c1cccs1)c1cccs1` [VPC-17160], on full-length AR, the “reduction of dimerization at 20 μM” value is given as “full reduction of dimerization”. Also, the “Nanoluc Counterscreen (10 μM)” value in experiment [1] amounted to 20%.

With `CC(O)(CNC(=O)C=Cc1ccnc2ccccc12)c1ccsc1` (stereo not shown) [VPC-17281], the “reduction of dimerization at 20 μM” value on full-length AR is “full reduction of dimerization”. In experiment [1], the “Nanoluc Counterscreen (10 μM)” value is 10%.
